# Values of other authors, collected in patent US20070135454A1, “Bicyclic pyrimidin-4(3h)-ones and analogues and derivatives thereof which modulate the function of the vanilloid-1-receptor(vr1)” (priority 2003, published 2007).
# Biological target: VR1 (Rattus norvegicus, UniProt O35433)
# Conditions: Wahl et al., Mol. Pharmacol, 59:9, 2001
# Chain of VR1 (O35433 whole entry): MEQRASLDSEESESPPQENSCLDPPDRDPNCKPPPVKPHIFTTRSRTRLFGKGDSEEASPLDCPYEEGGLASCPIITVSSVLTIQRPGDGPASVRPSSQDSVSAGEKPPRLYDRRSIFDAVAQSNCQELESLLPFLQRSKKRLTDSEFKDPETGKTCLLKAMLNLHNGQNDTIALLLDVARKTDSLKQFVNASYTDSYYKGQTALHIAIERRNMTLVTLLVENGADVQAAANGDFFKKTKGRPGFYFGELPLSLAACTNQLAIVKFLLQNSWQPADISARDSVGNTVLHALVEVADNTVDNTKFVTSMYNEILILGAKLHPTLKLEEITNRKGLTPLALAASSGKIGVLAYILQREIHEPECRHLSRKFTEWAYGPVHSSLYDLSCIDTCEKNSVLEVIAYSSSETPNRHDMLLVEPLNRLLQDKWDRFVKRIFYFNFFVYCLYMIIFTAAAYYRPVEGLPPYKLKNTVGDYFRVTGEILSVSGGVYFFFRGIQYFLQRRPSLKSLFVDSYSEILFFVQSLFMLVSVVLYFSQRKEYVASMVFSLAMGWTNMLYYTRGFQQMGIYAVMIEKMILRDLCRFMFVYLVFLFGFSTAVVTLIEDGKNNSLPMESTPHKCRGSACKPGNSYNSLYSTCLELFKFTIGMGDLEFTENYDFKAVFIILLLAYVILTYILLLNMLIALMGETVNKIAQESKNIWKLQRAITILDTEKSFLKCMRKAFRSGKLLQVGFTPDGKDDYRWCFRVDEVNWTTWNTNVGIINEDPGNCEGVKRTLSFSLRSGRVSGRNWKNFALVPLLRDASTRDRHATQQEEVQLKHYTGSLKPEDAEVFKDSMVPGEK
smiles,measurement,value
C=C(C)[C@]12C[C@@H](C)[C@@]34O[C@](Cc5ccccc5)(O[C@@H]1[C@@H]3C=C(COC(=O)Cc1cc(I)c(O)c(OC)c1)C[C@]1(O)C(=O)C(C)=C[C@@H]41)O2 [Iodo-resiniferatoxin],antagonist of VR1 (potency in words),nanomolar antagonist of VR1
